Experimental data as given in US20210154170A1, “METHODS OF TREATING NEUROPATHIC PAIN” (Biogen MA Inc., priority 2018, published 2021).

Legend:
[1] = Free fraction of Example 1 in plasma; format: in vitro ADME; conditions: human
[2] = system: dogs; experiment: Preclinical safety pharmacology, cardiovascular parameters; format: in vivo, dog; conditions: data not shown
Description: The 36 day treatment duration in this study was rationally designed to determine whether tolerance developed for any potential effects of BIIB074 on SBP or DBP, since BP effects resolved by day 28 in the earlier phase 1 trial. The data from this study show a slight trend towards a decrease in the BP difference between BIIB074 and placebo between day 4 and day 35, although differences were minimal at all time points. […] Thus, the body of evidence, encompassing clinical and preclinical studies, supports safety and minimal effects of BIIB074 on BP/cardiovascular parameters.

[3] = Phase 1 ABPM study, pharmacokinetics; format: in vivo, human
Experimental: (§1) This was a Phase 1, randomized, double-blind, placebo-controlled, repeat dose, 2-period cross-over study to investigate the effect of BIIB074 300-400 mg bid on ambulatory blood pressure (ABP) in healthy participants (FIG. 2). The study comprised: screening (to occur a maximum of 30 days before the first baseline assessment); two 36-day treatment periods, each preceded by a baseline visit and separated by a 7-day washout (to minimize possible carry over effects); and a follow-up period of 7-14 days after last dose. Prior to this study, no females had received BIIB074; for this reason, a single dose BIIB074 session at the dose level of 400 mg was also conducted in female participants one week prior to the period 1 baseline visit. Following this session, some participants were predicted to exceed the predefined PK limit (area under the plasma concentration-time curve [AUC] 97 μg·h/mL) when receiving 400 mg bid at steady state. Therefore, in the subsequent phases of the study, all female participants received a lower dose of 300 mg bid (males received 400 mg bid).
(§2) The primary endpoint was change in 24 h average SBP and DBP from baseline to day 36 as determined by ABPM. Secondary outcome measures included: change in 24 h average SBP and DBP from baseline to days 4 and 15; change in average SBP and DBP within a 12 h dosing interval from baseline to days 14 and 35 (inpatient); change in 24 h average ambulatory heart rate from baseline to days 4, 15 and 36; proportion of participants whose 24 h SBP and DBP increased by <5, 5-9, 10-14, 15-19, and >20 mm Hg compared with baseline; PK parameters of BIIB074 following a single oral dose in healthy female participants, and following repeated oral doses given twice daily to healthy male and female participants; PK/pharmacodynamic (PD) analyses to examine the correlation between ABP and plasma levels and/or metrics of the systemic exposure of BIIB074.
(§3) ABPM data were analyzed using a repeated measures mixed effects model, whereby fixed effects were treatment, day, treatment*day, period, average baseline*day, period adjusted baseline*day, sex and treatment*sex; random effect was subject; and repeated effect was day. All summary statistics were carried out using SAS 8.02 for UNIX running under the Harmonisation of Analysis and Reporting Program (HARP) environment. PK parameters were calculated by standard non-compartmental analysis according to working practices and using Win Nonlin Pro v. 5.2.
The safety population was the primary analysis population for this study and included all participants who received one or more doses of BIIB074. The PK population was defined as participants in the safety population for whom a PK sample was obtained and analyzed.

[4] = system: healthy participants; experiment: Phase 1 cross-over study, ambulatory blood pressure monitoring (ABPM); format: in vivo, human; conditions: for DBP: Change >10 and absolute value >80 mmHg, observations / SBP: Change >10 and absolute value >130 mmHg, observations: 300-400 mg repeat dose; for BIIB074-Placebo difference in change of 24 h average DBP / BIIB074-Placebo difference in change of 24 h average SBP / LS Mean change in 24 h average DBP from baseline / LS Mean change in 24 h average SBP from baseline: outpatient
Experimental: as §1
Participants were assigned to treatment sequences in accordance with a randomization schedule generated by Discovery Biometrics, prior to the start of the study, using validated software. Study treatment was BIIB074 400 mg bid for males/300 mg bid for females, or placebo, for 36 days. Prior to dosing, volunteers were randomized into one of the following treatment sequences, BIIB074 (period 1):placebo (period 2) or placebo (period 1):BIIB074 (period 2), and more specifically AB and BA if male and CAB and CBA if female, where A=placebo, B=BIIB074 400 mg bid in males and 300 mg bid in females, C=BIIB074 400 mg single dose in females. Randomization numbers were assigned by the site ensuring there was a balance of sequences (AB/BA and CAB/CBA) in each group. Periods 1 and 2 were double-masked to patients and study personnel.
as §2
ABP was collected over 24 hours on an outpatient basis at baseline and at days 4, 15 and 36, and over 12 hours on an inpatient basis at baseline, and at days 14 and 35. The ABPM device was placed on the non-dominant arm (except in clinical situations that prohibited measuring BP in the non-dominant arm). BP and heart rate were measured every 15 minutes.
Non-inferiority was based on the one-sided 95% confidence interval (CI) for BIIB074-placebo excluding an effect of >5 mmHg in SBP or DBP. It was planned to recruit approximately 60 participants in order to obtain a minimum of 48 evaluable for ABPM during the repeat dose phase, for at least 90% power, assuming a within-subject standard deviation (SDw) of 8.21 mmHg.
as §3, with “PK parameters were calculated by standard non-compartmental analysis according to working practices and using Win Nonlin Pro v. 5.2.” left out

[5] = system: human hepatocytes; experiment: Metabolism in human hepatocytes; format: in vitro ADME

Cl.NC(=O)[C@@H]1CC[C@H](c2ccc(OCc3ccccc3F)cc2)N1 [Example 1, (5R)-5-(4-{[(2-Fluorophenyl)methyl]oxy}phenyl)-L-prolinamide hydrochloride]
fraction unbound ([1]; listed as 150 mg tid): 0.032 | fraction unbound ([1]; listed as 200 mg bid): 0.036 | fraction unbound ([1]; listed as 250 mg tid): 0.032 | fraction unbound ([1]; listed as 350 mg bid): 0.032 | Effects on cardiovascular parameters [2]: no effects | AUCex ([3]; 400 mg single dose, female): 15.2% | tmax ([3]; Day 1, 300 mg bid, female): 1.50 h | tmax ([3]; Day 14, 300 mg bid, female): 1.50 h | AUC(0-12) ([3]; Day 14, 400 mg bid, male): 32100 (23.5) ng · h/mL | Cmax ([3]; Day 35, 300 mg bid, female): 3990 (26.6) ng/mL | AUC(0-24) in males (400 mg bid) higher than in females (300 mg bid) ([3]; days 14 and 35, on average): 10% | Cmax in males (400 mg bid) higher than in females (300 mg bid) ([3]; days 14 and 35, on average): 11-19% | Dose-normalized AUC lower in male than in female participants ([3]; repeat dosing, days 14 and 35): 17-18% | Dose-normalized Cmax lower in male than in female participants ([3]; repeat dosing, days 14 and 35): 11-17% | DBP: Change >10 and absolute value >80 mmHg, observations ([4]; Day 4, outpatient 24 h): 137 (10.6%) n (%) | SBP: Change >10 and absolute value >130 mmHg, observations ([4]; Day 4, outpatient 24 h): 116 (9.0%) n (%) | DBP: Change >10 and absolute value >80 mmHg, observations ([4]; Day 15, outpatient 24 h): 109 (8.3%) n (%) | SBP: Change >10 and absolute value >130 mmHg, observations ([4]; Day 15, outpatient 24 h): 95 (7.2%) n (%) | DBP: Change >10 and absolute value >80 mmHg, observations ([4]; Day 36, outpatient 24 h): 86 (6.9%) n (%) | SBP: Change >10 and absolute value >130 mmHg, observations ([4]; Day 36, outpatient 24 h): 63 (5.0%) n (%) | Slope of linear relationship DBP vs observed plasma concentration ([4]; PK/PD analysis, inpatient ABPM): approximately 0.00077±0.00012 mmHg/(ng/mL) | Slope of linear relationship SBP vs observed plasma concentration ([4]; PK/PD analysis, inpatient ABPM): ~0.00056±0.00013 mmHg/(ng/mL) | Average increase of SBP with plasma concentration ([4]; PK/PD analysis, over the 24 h interval): < 2 mmHg | Upper bound of one-sided 95% CI for BIIB074-placebo ([4]; SBP on day 4, outpatient): ~2.2 mmHg | Inpatient 12 h ABPM, difference to placebo ([4]; after 36 days of therapy): no significant differences | Increase in outpatient 24 h SBP or DBP ([4]; day 36, distribution of individual changes): no evidence to suggest a significant increase | Observations with DBP increase >10 mmHg and absolute value >80 mmHg ([4]; day 36, outpatient): 6.9% | Observations with SBP increase >10 mmHg and absolute value >130 mmHg ([4]; day 36, outpatient): 5.0% | Observations with increase from baseline in SBP>30 mmHg ([4]; day 36, outpatient 24 h (0%)): 4/1249 | Observations with increase from baseline in DBP>20 mmHg ([4]; day 36, outpatient 24 h (3%)): 35/1249 | Increase in change from baseline for SBP, DBP, and heart rate ([4]; inpatient ABPM, days 14 and 35): 2.0-2.5 mmHg/bpm | Upper bound of one-sided 95% CI for BIIB074-placebo ([4]; majority of SBP and DBP comparisons on days 4, 15, 36): < 2 mmHg | Non-inferiority to placebo, outpatient 24 h SBP and DBP ([4]; one-sided 95% CI excluding effect >5 mmHg): Non-inferiority of BIIB074 compared to placebo was demonstrated | BIIB074-Placebo difference in change of 24 h average DBP ([4]; Day 4): 0.789 mmHg | BIIB074-Placebo difference in change of 24 h average SBP ([4]; Day 4): 1.006 mmHg | LS Mean change in 24 h average DBP from baseline ([4]; Day 4, 300-400 mg bid): 1.856 mmHg | LS Mean change in 24 h average SBP from baseline ([4]; Day 4, 300-400 mg bid): 2.372 mmHg | BIIB074-Placebo difference in change of 24 h average DBP ([4]; Day 15): 0.645 mmHg | BIIB074-Placebo difference in change of 24 h average SBP ([4]; Day 15): 0.294 mmHg | LS Mean change in 24 h average DBP from baseline ([4]; Day 15, 300-400 mg bid): 0.907 mmHg | LS Mean change in 24 h average SBP from baseline ([4]; Day 15, 300-400 mg bid): 0.915 mmHg | BIIB074-Placebo difference in change of 24 h average DBP ([4]; Day 36): 0.287 mmHg | BIIB074-Placebo difference in change of 24 h average SBP ([4]; Day 36): −0.507 mmHg | LS Mean change in 24 h average DBP from baseline ([4]; Day 36, 300-400 mg bid): 0.201 mmHg | LS Mean change in 24 h average SBP from baseline ([4]; Day 36, 300-400 mg bid): −0.327 mmHg | Change in SBP and DBP, outpatient and inpatient ABPM ([4]; repeat doses for 36 days): lack of clinically relevant change | Main route of metabolism [5]: mainly metabolized by uridine diphosphate glucuronosyltransferases (UGTs)
